Results: the NIST ThermoML archive (doi:10.1016/j.jct.2016.10.034)

How the values were obtained:
[1] = for viscosity / mass density: 100 kPa, Liquid; for viscosity: Falling or rolling sphere viscometry; for mass density: Vibrating tube method; for Glass transition temperature: DSC
[2] = xn = mol fraction of the nth substance listed; details: 100 kPa, Liquid, x2 = 0; for viscosity: Falling or rolling sphere viscometry; for mass density: Vibrating tube method

CC(=O)[O-].CC[N+]1(C)CCCC1 [1-ethyl-1-methylpyrrolidinium acetate]
[1]
Details	mass density [kg/m3]	viscosity [mPa·s]
298.15 K	1064.5	240
303.15 K	1061.8	184
308.15 K	1058.7	145
313.15 K	1055.9	117
318.15 K	1053.1	93.4
323.15 K	1050.3	74
328.15 K	1047.4	60
333.15 K	1044.4	49.2
338.15 K	1041.8	39.4
343.15 K	1038.8	32.4
348.15 K	1035.9	26

Details	Glass transition temperature [°C]
[1]	-88

CC[N+]1(C)CCCC1.O=C([O-])CO [1-ethyl-1-methylpyrrolidinium glycolate]
[1]
Details	mass density [kg/m3]	viscosity [mPa·s]
298.15 K	1134	345
303.15 K	1130.7	254
308.15 K	1127.3	192
313.15 K	1124	151
318.15 K	1120.8	116
323.15 K	1117.6	92.2
328.15 K	1114.4	76.9
333.15 K	1111.2	60.6
338.15 K	1108.1	49.6
343.15 K	1105	41.2
348.15 K	1101.9	34.2

Details	Glass transition temperature [°C]
[1]	-80

CC[N+]1(C)CCOCC1.O=C([O-])CO [N-ethyl-N-methylmorpholinium glycolate]
[1]
Details	mass density [kg/m3]	viscosity [mPa·s]
298.15 K	1232.6	–
303.15 K	1229.5	–
308.15 K	1226.3	–
313.15 K	1223	–
318.15 K	1219.8	2500
323.15 K	1216.5	1799
328.15 K	1213.3	1155
333.15 K	1210.1	854
338.15 K	1207.2	666
343.15 K	1204.1	488
348.15 K	1201.1	363

Details	Glass transition temperature [°C]
[1]	-59

O [water] + CC(=O)[O-].CC[N+]1(C)CCCC1
[2]
Details	mass density [kg/m3]	viscosity [mPa·s]
298.15 K	–	0.89
303.15 K	–	0.797
308.15 K	–	0.719
313.15 K	–	0.653
318.15 K	–	0.596
323.15 K	987.9	0.547
328.15 K	985.7	0.504
333.15 K	983.2	0.466
338.15 K	980.3	0.433
343.15 K	978.1	0.404
348.15 K	974.8	0.378

O [water] + CC[N+]1(C)CCCC1.O=C([O-])CO
[2]
Details	mass density [kg/m3]	viscosity [mPa·s]
298.15 K	–	0.89
303.15 K	–	0.797
308.15 K	–	0.719
313.15 K	–	0.653
318.15 K	–	0.596
323.15 K	987.9	0.547
328.15 K	985.7	0.504
333.15 K	983.2	0.466
338.15 K	980.3	0.433
343.15 K	978.1	0.404
348.15 K	974.8	0.378

O [water] + CC[N+]1(C)CCOCC1.O=C([O-])CO
[2]
Details	mass density [kg/m3]	viscosity [mPa·s]
298.15 K	–	0.89
303.15 K	–	0.797
308.15 K	–	0.719
313.15 K	–	0.653
318.15 K	–	0.596
323.15 K	987.9	0.547
328.15 K	985.7	0.504
333.15 K	983.2	0.466
338.15 K	980.3	0.433
343.15 K	978.1	0.404
348.15 K	974.8	0.378
